# Measured values from PMC3298469, “A selective and potent CXCR3 antagonist SCH 546738 attenuates the development of autoimmune diseases and delays graft rejection” (BMC Immunology, 2012).
# pIC50: −log10 of the molar value.
# Columns and labels:
# [1] = target: T1, dog CXCR3 (Canis lupus familiaris, UniProt Q5KSK8); assay: [125I]hCXCL10 competition binding (SPA, Ba/F3 membranes); conditions: read-out: IC50 (nM) (CXCL10)
# T1 construct: expressed in transfected cells; host or cells: mouse pro-B Ba/F3 cells (vector pME18Sneo), membrane preparation
# Description: (§1) The cDNAs encoding human, mouse and rat CXCR3 were generated based on the published sequences: human (NM_001504), mouse (NM_009910), rat (NM_053415). The cDNAs for monkey and dog CXCR3 were cloned in the lab. All CXCR3 cDNAs were cloned into the mammalian expression vector pME18Sneo, a derivative of the SRα expression vector as described previously. IL-3-dependent mouse pro-B cells Ba/F3 were transfected to express CXCR3 of different species and cell membranes were prepared as described previously.
# (§2) A scintillation proximity assay was used for radioligand competition binding assays as described previously with some modifications. For each assay point, 1 µg of membrane was preincubated for 1 hr with 300 µg wheat germ agglutinin (WGA) coated SPA beads (GE Healthcare Life Sciences) in the binding buffer (50 mM HEPES, 1 mM CaCl2, 5 mM MgCl2, 125 mM NaCl, 0.002% NaN3, 1.0% BSA) at room temperature. The beads were spun down, resuspended in the binding buffer and transferred to a 96-well Isoplate (Wallac, Gaithersburg, MD). The indicated concentrations of ^125I-hCXCL10, ^125I-hCXCL11 or ^35S-SCH 535390 with a series of titrations of SCH 546738 were added to start the reaction. After indicated reaction times at room temperature, the amount of radioactivity bound to the SPA beads was determined with a Wallac 1450 Microbeta counter (Wallac).
# (§3) It is important to investigate species specificity of SCH 546738 to design in vivo preclinical studies.
# [2] = target: T2, mouse CXCR3 (Mus musculus, UniProt O88410); assay: as above; conditions: read-out: IC50 (nM) (CXCL10)
# T2 construct: expressed in transfected cells; host or cells: mouse pro-B Ba/F3 cells (vector pME18Sneo), membrane preparation
# Description: as §1, §2, §3
# [3] = target: T3, rat CXCR3 (Rattus norvegicus, UniProt Q9JII9); assay: as above; conditions: read-out: IC50 (nM) (CXCL10)
# T3 construct: expressed in transfected cells; host or cells: mouse pro-B Ba/F3 cells (vector pME18Sneo), membrane preparation
# Description: as §1, §2, §3
# [4] = tested on: male B10.RIII mice; assay: mouse collagen-induced arthritis (disease score and paw histopathology); format: in vivo
# Description: Briefly, 12-week-old male B10.RIII mice (Jackson Laboratories, Bar Harbor, ME) were immunized intradermally at five sites with bovine type II collagen (Elastin Products, Owensville, MO) emulsified with an equal volume of complete Freund's adjuvant (CFA). CFA was comprised of a mixture of incomplete Freund's adjuvant (Difco, Detroit, MI) and heat-killed, freeze-dried Mycobacteria tuberculosis (Ministry of Agriculture, Fisheries & Food, Surrey, England). Each mouse received 300 µg/ml bovine type II collagen and 0.5 mg/ml complete Freund's adjuvant. Mice were boosted intraperitoneally with 100 µg of bovine type II collagen on day 20. Disease progression was monitored by a standardized visual scoring system with a scale from 0 to 12 reflecting the degree of swelling/redness of each paw (maximal score 3 per paw) and the number of paws (maximal 4) involved per individual animal.
# After euthanasia, front and hind paws of the animals were dissected and fixed by immersion in 10% phosphate-buffered formalin before decalcification. Following decalcification with Cal-Rite (Richard Allen Scientific, Kalamazoo, MI), formalin fixed tissues were processed and sectioned at 5µm. Paraffin sections were stained with Hematoxylin and Eosin (H&E). […] The changes in joint structures, including cartilage destruction, bone erosion/remodelling and pannus formation were scored as follows: 0 = Normal, 1 = Minimal, 2 = Mild, 3 = Moderate, 4 = Marked, 5 = Severe. A grade of 5.5 was also added to address full-thickness cartilage breach. Cellular infiltrates and inflammation in animal joints were scored as the following: 0 = Normal, 1 = Minimal, 2 = Mild, 3 = Moderate, 4 = Marked.
# Sixteen days later which was 4 days prior to receiving a BC II boost (day -4); mice were randomized into treatment groups with approximately 10% of the animals in each group having developed at least one swollen paw. Oral twice daily treatment with SCH 546738 was initiated at this time (day -4) and continued through day 9, with a BC II antigen boost on day 0.
# SCH 546738 in 0.4% methylcellulose was administered orally twice daily at 3, 10 and 40 mg/kg (mpk). Dosing was initiated 16 days (day -4) postimmunization and continued through day 9.
# Paws collected at day 9 from the vehicle (0.4% methylcellulose) and 40 mpk SCH 546738 groups of two independent experiments were analyzed by histopathology.
# [5] = tested on: Lewis rats; assay: rat experimental autoimmune encephalomyelitis; format: in vivo; conditions: p.o. in 0.4% methylcellulose, varying doses; data not shown
# Description: Male Lewis rats challenged by injection of 50 µl (30 mg) of a guinea pig spinal cord homogenate in CFA into one footpad. The animals were treated starting at day 0 and oral dosing continued throughout the 3-week disease course, with varying amounts of SCH 546738 in 0.4% methylcellulose (MC) p.o. Animals were scored for disease severity: 0, no clinical signs; 1, flaccid tail; 2, hind limb weakness; 3, complete hind limb paralysis; 4, complete hind limb paralysis, forelimb weakness or paralysis; 5, death.
# For CIA and EAE models, unpaired t-tests were performed using GraphPad InStat version 5.0.1 for Windows 98, GraphPad Software, San Diego California USA (http://www.graphpad.com). Statistical significance was evaluated by comparing the vehicle-treated group with the experimental group using unpaired t-test. Differences were considered significant when p values were <0.05.
# Experimental autoimmune encephalomyelitis (EAE) is an animal model for human MS and development of disease is dependent on T cell infiltration into the CNS. In the murine model of EAE, SCH 546738 was tested in combination with interferon-β (IFN-β), a current first-line therapeutic for the amelioration of relapsing-remitting MS. C57BL/6 mice were primed by intravenous injection of pertussis toxin on day 0 and day 2. […] Disease progression was monitored by a scoring system as described in Methods. […]
# [6] = target: T4, CXCR3 (Homo sapiens, UniProt P49682); assay: [125I]hCXCL10 competition binding (SPA, Ba/F3 membranes); design: expressed in transfected cells; host or cells: mouse pro-B Ba/F3 cells (vector pME18Sneo), membrane preparation
# T4 sequence (P49682 1-368): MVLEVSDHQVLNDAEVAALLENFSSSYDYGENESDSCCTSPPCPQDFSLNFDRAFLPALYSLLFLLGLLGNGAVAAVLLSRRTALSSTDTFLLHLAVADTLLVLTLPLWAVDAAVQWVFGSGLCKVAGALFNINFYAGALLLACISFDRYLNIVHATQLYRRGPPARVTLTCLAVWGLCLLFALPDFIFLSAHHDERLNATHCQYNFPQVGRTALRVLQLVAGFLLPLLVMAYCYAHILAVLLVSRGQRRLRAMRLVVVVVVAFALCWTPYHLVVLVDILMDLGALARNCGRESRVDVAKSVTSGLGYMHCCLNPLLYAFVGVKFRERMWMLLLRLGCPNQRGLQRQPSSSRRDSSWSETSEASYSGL
# Description: as §1, §2
# (§4) The ability of SCH 546738 to compete the binding of [^125I]hCXCL10 and [^125I]hCXCL11 to human CXCR3 receptor was determined using various concentrations of [^125I]hCXCL10 and [^125I]hCXCL11 as described in Methods. After 3 hr reaction, specific counts relative to input counts (B/B0) in the presence of increasing concentrations of SCH 546738 are plotted.
# [7] = target: T4, CXCR3; assay: [125I]hCXCL11 competition binding (SPA, Ba/F3 membranes); design: expressed in transfected cells; host or cells: mouse pro-B Ba/F3 cells (vector pME18Sneo), membrane preparation
# Description: as §1, §2, §4
# [8] = 40 mpk, paws collected on day 9
# T1 sequence (Q5KSK8 whole entry): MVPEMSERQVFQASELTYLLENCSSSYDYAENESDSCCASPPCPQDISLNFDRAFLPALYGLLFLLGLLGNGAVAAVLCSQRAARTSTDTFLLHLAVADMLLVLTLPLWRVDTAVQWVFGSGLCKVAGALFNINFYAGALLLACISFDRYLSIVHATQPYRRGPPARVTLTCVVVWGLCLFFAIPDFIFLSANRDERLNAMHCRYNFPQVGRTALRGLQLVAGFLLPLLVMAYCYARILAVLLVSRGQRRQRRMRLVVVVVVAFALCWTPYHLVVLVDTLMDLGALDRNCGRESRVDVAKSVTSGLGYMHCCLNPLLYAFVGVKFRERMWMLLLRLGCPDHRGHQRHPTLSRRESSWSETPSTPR
# T2 sequence (O88410 whole entry): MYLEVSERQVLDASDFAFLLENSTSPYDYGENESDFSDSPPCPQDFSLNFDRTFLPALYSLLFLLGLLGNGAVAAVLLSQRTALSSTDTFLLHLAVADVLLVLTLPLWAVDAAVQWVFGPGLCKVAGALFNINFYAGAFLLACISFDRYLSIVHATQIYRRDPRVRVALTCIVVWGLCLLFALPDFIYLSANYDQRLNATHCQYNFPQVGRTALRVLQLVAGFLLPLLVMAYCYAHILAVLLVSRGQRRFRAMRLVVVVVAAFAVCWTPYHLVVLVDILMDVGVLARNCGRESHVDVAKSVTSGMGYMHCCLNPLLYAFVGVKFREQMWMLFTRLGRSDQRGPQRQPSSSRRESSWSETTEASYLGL
# T3 sequence (Q9JII9 whole entry): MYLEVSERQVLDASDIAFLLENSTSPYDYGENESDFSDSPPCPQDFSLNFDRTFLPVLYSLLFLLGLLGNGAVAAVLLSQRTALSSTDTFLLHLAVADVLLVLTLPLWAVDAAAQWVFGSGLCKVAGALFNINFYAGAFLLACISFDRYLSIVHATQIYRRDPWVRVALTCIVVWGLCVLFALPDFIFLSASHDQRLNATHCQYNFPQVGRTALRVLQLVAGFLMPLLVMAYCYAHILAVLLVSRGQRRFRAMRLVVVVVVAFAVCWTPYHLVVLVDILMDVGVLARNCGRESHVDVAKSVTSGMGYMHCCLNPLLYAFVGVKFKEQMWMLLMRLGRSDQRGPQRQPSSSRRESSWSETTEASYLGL
structure (smiles),measurement,setting,value
CC[C@H]1CN(c2nc(N)c(C(N)=O)nc2Cl)CCN1C1CCN(Cc2ccc(Cl)cc2)CC1 [SCH 546738],IC50,[1],6.4 nM
same,IC50,[2],5.9 nM
same,IC50,[3],4.2 nM
same,effect on disease severity,[4]; 3 mpk oral twice daily,no statistically significant effect
same,effect on disease score,"[4]; 10 mpk oral twice daily, days 7 and 9",protected significantly
same,effect on disease score,"[4]; 40 mpk oral twice daily, day -4 to day 9, days 4, 7 and 9",significant reduction of the disease score
same,leukocyte infiltration into the joint (histopathology score),[4]; [8],significantly attenuated
same,structural damage to the bone and cartilage (histopathology score),[4]; [8],significantly attenuated
same,effect on disease severity,[5],reduced the severity of the disease in a dose-dependent manner
same,IC50,"[6]; Human CXCR3, [125I]hCXCL10, read-out: IC50 (nM) (CXCL10)",0.8 nM
same,pIC50,"[6]; [125I-hIP-10] 100 pM, 3 hr reaction, read-out: IC50",9.00
same,pIC50,"[6]; [125I-hIP-10] 500 pM, 3 hr reaction, read-out: IC50",8.92
same,pIC50,"[6]; [125I]hCXCL10 25-500 pM, read-out: IC50 (constant, independent of input concentration)",~9.00
same,mode of antagonism of CXCL10 and CXCL11 binding to CXCR3,[6]; both CXCL10 and CXCL11,non-competitive antagonist
same,pIC50,"[6]; range over both radioligands CXCL10 and CXCL11, read-out: IC50 for displacing radiolabeled CXCL10 and CXCL11 from human CXCR3",8.66 to 9.10
same,pIC50,"[7]; [125I-hI-TAC] 12.5 pM, 3 hr reaction, read-out: IC50",8.70
same,pIC50,"[7]; [125I-hI-TAC] 50 pM, 3 hr reaction, read-out: IC50",8.74
same,pIC50,"[7]; [125I-hI-TAC] 250 pM, 3 hr reaction, read-out: IC50",8.66
same,pIC50,"[7]; [125I]hCXCL11 12.5-250 pM, read-out: IC50 (constant, independent of input concentration)",~8.70
